# Literature values as cited in patent US20220125811A1, “INJECTABLE COMPOSITION FOR INDUCING LIPOLYSIS AND METHOD USING THE SAME” (priority 2020, published 2022).
# Conditions: half saline; 5 mEq sodium bicarbonate (8.4%); 6 cc multivitamin formulation; 10 cc amino acid formulation
smiles,measurement,value
"O=C([O-])O.[Na+] [sodium bicarbonate (8.4%), sodium bicarbonate]",osmolarity of the ingredient amount used in the calculation,10 mOsm
